These results are taken from patent US20170112760A1, “CELL DELIVERY SYSTEM AND METHOD” (The Queen's University of Belfast, priority 2014, published 2017).

Like-named read-outs stand apart in the source and are kept apart here. Ends that are not written are not given here.

A short description of series [1]: Immune response on repeated intravenous administration (ELISAs, Greiss test). The series is classed as in vivo, C57/BL6 mice. The note with it: first week. Here is the method:
FIG. 8: Immune response of C57BL/6 mice injected with PBS only, PEI only, RALA only, DNA only, PEI/DNA or RALA/DNA nanoparticles. For each injection the equivalent to N:P 10 with 10 μg of DNA was injected. Mice received one injection per week for three weeks. 48 h after each injection three mice were sacrificed and the serum was extracted for analysis. a) IgG, b) IgM, c) IL-1β, d) IL-6 and e) Greiss test for total nitrites.
For the harvesting of blood and intraperitoneal macrophages, cervical dislocation was the preferred method of euthanasia. Cardiac puncture was performed using a 21 G gauge needle (BD Biosciences, UK). The needle was placed horizontally slightly to the left side of the sternum to go up through the diaphragm. The needle was then withdrawn very slowly until 500 μl of blood was collected and placed in an eppendorf. The eppendorf was then stored at room temperature with an open lid to facilitate coagulation. After 30 min the eppendorfs were centrifuged at 2000 rpm for 10 min. The supernatant containing the serum was carefully decanted and placed into a clean eppendorf and stored at −20° C. until further use. When harvesting intraperitoneal macrophages an incision was made and the peritoneal cavity was flushed out with 30% sucrose (Sigma, UK) solution. The macrophages were stored at 4° C. until they could be cultured (FIG. 8). […]

A further series relates to ZR-75-1 cells. The series can be described thus: Transfection with peptide/pEGFP-N1 nanoparticles, GFP expression by flow cytometry. The series is classed as cell-based. Conditions: for Transfection Efficiency in ZR-75-1 Cells: peptide/DNA nanoparticles, N:P10. The method, then: In order to test the RALA in vitro, small scale transfections were performed carried out. 5×10^4 cells were seeded onto each well of a 96 well plate and the cells incubated under with complete medium standard conditions for 48 hours. The medium was subsequently removed from the plates and 100 μl of transfection medium (Optimem Invitrogen, UK) was added to each well. Cells were incubated for 2 hours at 37° C. and 5% CO2 standard conditions. In the meanwhile complexes were made up using 1 μg of plasmid DNA with the RALA vector and added to the cells when the two hours had passed. 100 μl of the each N:P ratio were added to each well of the cells. Cells were then incubated for a further 4 hours under standard conditions and the medium with RPMI-1640 supplemented with +10% FCS. (FIG. 4, 31(+Chloroquine), 32 (+Bafilomycin), 33 (+KALA NPs), 34 (+Lipofectamine), 35).
ZR-75-1 & PC-3 cells that were transfected with RALA/pEGFP-N1 complexes were trypsinised and washed twice with 2% formaldehyde in phosphate buffered saline. The expression of green fluorescent protein was measured by flow cytometry using FACS calibur system (BD Bioscience, UK). The data was analysed using the Flo-Jo software program and fluorescent intensity is reported at 4% gating. (FIG. 7b, 11, 31, 32, 33, 34, 35, 57 (+RAT/pEGFP-N1)).
(In general: Flow cytometry measures light scatter and fluorescence of single cells or particles in a stream.)

In series [2] the test system is PC-3 prostate cancer cells. The series can be described thus: Cell proliferation assay (manual cell counts), bisphosphonates and RALA/BP nanoparticles. The note with it: for maximum cell kill: FIG. 51.
Method: FIG. 51: Cell viability was evaluated by manual counting of the viable adherent cells using a haemocytometer. PC-3 prostate cancer cells were seeded in a 96-well flat-bottom tissue culture plate at a density of 1×10^4 cells per well and incubated in complete culture medium for 24 h. Two hours prior to transfection the cells were conditioned in OptiMEM serum-free medium and subsequently treated with solutions of BP to achieve a final exposure concentration of 5 μM to 1 mM. RALA/BP nanoparticles were prepared using a mass ratio of 10:1 such that the final concentration of BP per well was in the range 5 μM to 75 μM. Cells were incubated at 37° C. with 5% CO2 for 6 h before medium was replaced with completed culture medium and left to incubate for 72 h. Following incubation the cells were trypsinised and counted. Cell viability was expressed as a percentage of the untreated control where the untreated control is considered to be 100% viable. Dose-response curves were obtained for free BP and RALA/BP allowing determination of EC50 values for each. EC50 values refer to the concentration that induces a response halfway between the baseline and the maximum plateau obtained.
Cell viability was evaluated by manual counting of the viable adherent cells using a haemocytometer as described in. PC-3 prostate cancer cells were seeded in a 96-well flat-bottom tissue culture plate at a density of 1×10^4 cells per well and incubated in complete culture medium for 24 h. Two hours prior to transfection the cells were conditioned in OptiMEM serum-free medium (Invitrogen, UK) optimised for transfection. Cells were treated with solutions of BP to achieve a final exposure concentration of 5 μM to 1 mM. RALA/BP nanoparticles were prepared using a mass ratio of 10:1 such that the final concentration of BP per well was in the range 5 μM to 75 μM. Cells were incubated at 37° C. with 5% CO2 for 6 h before medium was replaced with completed culture medium and left to incubate for 72 h. Following incubation the cells were trypsinised and counted. Cell viability was expressed as a percentage of the untreated control where the untreated control is considered to be 100% viable. Dose-response curves were obtained for free BP and RALA/BP allowing determination of EC50 values for each. EC50 values refer to the concentration that induces a response halfway between the baseline and the maximum plateau obtained (FIG. 46, 51).
The nature of series [3]: Nanoparticle size and charge analysis (DLS, zeta potential, Malvern Zetasizer). The series is classed as physicochemical. The note with it: peptide/DNA nanoparticles, N:P10. The method, then: In order to obtain particle size and charge distributions the mean hydrodynamic particle size measurements RALA complexes were performed using Dynamic Light Scattering (DLS). Dynamic Light Scattering is based upon the principle that when particles are illuminated with a laser, due to Brownian motion there will be scattering of the light. The intensity of the scattered light fluctuates as a result of this Brownian motion caused by bombardment of the particles by solvent molecules. A correlation curve reflecting the decay rate is generated based on fluctuations of the scattered light where a slower correlation decay rate represents a slower moving particle. Based on the Stokes-Einstein equation larger particles move more slowly and, thus, the correlation function can be used to determine the size distribution of the particles. dynamic light scattering (DLS) was used.
Surface charge measurements of the RALA nanoparticles were determined by Laser Doppler Velocimetry. The zeta potential of the particles was measured using disposable foltable zeta cuvettes. Zeta cuvettes for the measurement of zeta potential were first washed with 70% ethanol, followed by two rinses with double distilled H2O prior to loading the sample. Enough diluted sample used for size measurement was used for determination of zeta potential.
The nanoparticles were made up at an appropriate range of N:P ratios with at least using 2 μg of DNA in each sample. Nanoparticles were analysed using either and analysis was completed on either the Zetasizer-HS3000 (Malvern Instruments) or the Zetasizer-Nano instrument with DTS software (Malvern Instruments, UK). Zetasizer-Nano (Malvern Instruments) (FIGS. 3, 9, 17-21, 41, 48 & 55).

The subject of series [4] is PC-3 prostate cancer cell xenograft. The series can be described thus: PC-3 xenograft model, intratumoural RALA/alendronate. The series is classed as in vivo, BALB-C SCID mice. The note with it: thrice weekly.

As for WEARLARALARALARHLARALARALRACEA [RALA], in series [1], the TNFα response result is listed as “significantly lower initial response of TNFα than the PEI only treated animals”.

For the molecule “WEARLARALARALARHLRACEA (22mer protein sequence (Table 2)) [Peptide 22mer, comparative peptide, reference compound]”, in the series with ZR-75-1 cells, the “ability to condense DNA into nanoparticles and transfect cells” value was “unable to condense DNA into nanoparticles and transfect cells”.

For orientation: EC50 means the concentration giving half of the maximal effect. In series [2], `O=P(O)(O)C(O)(Cc1cccnc1)P(=O)(O)O` [risedronate] came in with an EC50 of 78 µM and a maximum cell kill of 20%.

In series [2], `O=P(O)(O)C(O)(Cn1ccnc1)P(=O)(O)O` [zoledronate] had an EC50 of 27.6 µM and a maximum cell kill of 82%.

Turning to “WEARLARALARALARELARALARALRACEA (amphipathic peptide sequence (Table 2)) [Peptide 3, H replaced with glutamic acid (E)]”, the “Charge (mV)” value in series [3] came out at 24 mV. Also, in the series on ZR-75-1 cells, the “Transfection Efficiency in ZR-75-1 Cells” value was determined as 41%.

`CC(O)(P(=O)(O)O)P(=O)(O)O` [etidronate]: the “percentage cell survival with increasing BP” value in series [2] (FIG. 51d) was “no reduction in percentage cell survival with increasing BP”.

As for “REARLARALARALARLARALARALRAREA (amphipathic peptide sequence (Table 2)) [Peptide 5, H Removed and W replaced with R and C replaced with R]”, the “Charge (mV)” value in series [3] was 13 mV. Further, the “Transfection Efficiency in ZR-75-1 Cells” value with ZR-75-1 cells came out at 46%.

“REARLARALARALARLARALARALRACEA (amphipathic peptide sequence (Table 2)) [Peptide 4, H Removed and W replaced with R]”: the “Charge (mV)” value in series [3] was 12 mV. Further, the “Transfection Efficiency in ZR-75-1 Cells” value in the series on ZR-75-1 cells is 50%.

`NCCCC(O)(P(=O)(O)O)P(=O)(O)O` [alendronate]: the “effect on tumour growth vs untreated control” value in series [4] is “high statistical significance when compared to the untreated control”. For the same molecule, the EC50 in series [2] (FIG. 16: 10 μM to 250 μM, six hours, 72 hours recovery) stood at 97.9 µM; in series [2] (FIG. 51: 6 h treatment, 72 h incubation, mass ratio 10:1), 100 µM.

For “WEARLARALARALARLARALARALRACEA (amphipathic peptide sequence (Table 2)) [Peptide 2, H removed]”, in series [3], the “Charge (mV)” value amounted to 22 mV. In addition, in the series with ZR-75-1 cells, the “Transfection Efficiency in ZR-75-1 Cells” value was determined as 55%.

As to “REARLARALARALARELARALARALRAREA (amphipathic peptide sequence (Table 2)) [Peptide 6, H Replaced with E and W replaced with R and C replaced with R]”, in series [3], the “Best Size (nm)” value was determined as 308 nm and the “Charge (mV)” value turned out to be 6 mV. Besides, the “Transfection Efficiency in ZR-75-1 Cells” value in the series with ZR-75-1 cells is reported as 43%.
